Consider two molecules from patent publication US20230050846A1, “TREATMENT OF HEPATIC AND CARDIOVASCULAR DISORDERS” (LIFESEARCH, priority 2019, published 2023).

Where two headings read alike, the source gives them in different places. Peptide text beside a SMILES is read from it. * marks the point of attachment. Palmitoyl = CCCCCCCCCCCCCCCC(=O)*

Data set [1] in a line: Pharmacokinetics in mice (plasma, LC-MS/MS). Type of data set: in vivo, mouse. Particulars: 25 mg/kg; for MRT: read-out: MRT (mean residence time). As for the experimental part: The peptide of formula (I) and the peptide of formula (II) were analyzed in mouse EDTA plasma using a validated assay involving trypsin proteolysis and the subsequent analysis of a signature peptide (SEQ ID NO: 3) by liquid chromatography-tandem mass spectrometry (LC-MS/MS). The working solution of unlabeled peptide (SEQ ID NO: 3, 1 mM) was serially diluted in water to obtain 7 standard solutions ranging 0.05-5 μM. Plasma and standard samples (40 μL) were reduced, alkylated and trypsin-digested overnight using the ready-to-use solutions of the ProteinWorks™ eXpress kit (Waters Corporation, Milford, Mass., USA), according to the manufacturer's instructions (except trypsin incubation time optimized to 7 h). The working solution of the labeled proteotypic peptide ([SEQ ID NO: 4]-[^13C6, ^15N4]-K, 1 mM) was used as internal standard (IS) and added to the digestion buffer to a final concentration of 0.5 μM. After digestion, samples were cleaned using 30 mg Oasis HLB 1 cc Cartridges (Waters Corporation). Cartridges were conditioned, equilibrated, loaded, washed and eluted with methanol (1 mL), water (1 mL), samples (˜200 μL), 5% methanol containing 0.1% TFA (1 mL) and 60% methanol containing 0.1% TFA (1 mL), respectively. Eluates were dried under a nitrogen stream, reconstituted with 100 μL of 10% acetonitrile containing 0.1% formic acid, and 10 μL were injected into the LC-MS/MS system. LC-MS/MS analyses were performed on a Xevo® TQD mass spectrometer with an electrospray (ESI) interface and an Acquity H-Class® UPLC™ device (Waters Corporation). Proteotypic peptides were separated over 9 min on an Acquity® BEH C18 column (2.1×100 mm, 1.7 μm, Waters Corporation) held at 60° C. with a linear gradient of mobile phase B (100% acetonitrile) in mobile phase A (5% acetonitrile), each containing 0.1% formic acid, and at a flow rate of 600 μL/min. […] Proteotypic peptides were then detected by the mass spectrometer with the ESI interface operating in the positive ion mode (capillary voltage, 3 kV; desolvatation gas (N2) flow and temperature, 900 L/h and 400° C.; source temperature, 150° C.). The multiple reaction monitoring mode was applied for MS/MS detection (SEQ ID NO: 3, m/z 368.8→536.5, y6^+; [SEQ ID NO: 4]-[^13C6, ^15N4]-K, m/z 372.8→544.4, y6) with cone and collision voltages set at 20 and 14 V, respectively. Data acquisition and analyses were performed with MassLynx® and TargetLynx® software, respectively (version 4.1, Waters Corporation). Chromatographic peak area ratio between unlabeled peptide and IS constituted the detector responses. Standard solutions were used to plot calibration curves for peptide quantification. The linearity was expressed by the mean r^2 which was greater than 0.998 (linear regression, 1/x weighting, origin excluded). […] The peptide of formula (I) and the peptide of formula (II) concentrations were expressed in μM assuming 1 mole of peptide equivalent to 1 mole of the peptide of formula (I) and the peptide of formula (II), respectively. Concentrations were then converted to their standard unit (ng/mL) assuming molecular weights of 3540 Da and 3917 Da for the peptide of formula (I) and the peptide of formula (II), respectively.
Wild-type C57B/L6J male mice were purchased from Janvier Labs (Le Genest Saint Isle, France). Mice were caged in animal rooms under specific pathogen free conditions at the animal facility of Rangueil (Anexplo platform, US006, Toulouse, France) with a light/dark schedule of 12 h/12 h and were fed ad libitum with a normal chow diet (#V1535 R/M-H, Ssniff, Germany). All animal experimental procedures were conducted in accordance with institutional guidelines on animal experimentation approved by the local ethical committee of animal care and are conformed to the guidelines from Directive 2010/63/EU of the European Parliament on the protection of animals used for scientific purposes or the NIH guideline. […]

The next data set concerns HUVEC cells. Kind of data set: Endothelial nitric oxide (NO) production, DAF-FM-DA probe. To be noted: 1 μM, 10 min; abolished by IF1. Type of data set: cell-based, human. Here is the method: Nitric oxide (NO) was detected using a DAF-FM-DA probe (D2321, Sigma-Aldrich) which forms fluorescent benzotriazole when it reacts with NO. HUVEC cells (PromoCell #C-12203) were seeded in 96-well plates (10,000 cells per well) and cultured in endothelial cell basal medium 2 (PromoCell #C-22211) supplemented with GM2 supplement Mix (PromoCell #C-39211), until 80-90% confluence. The medium was then replaced with M-199 without serum for 4 h, and the cells were incubated for 45 min with DAF-FM-DA (5 μM) diluted in PBS. Cells were treated with increasing concentrations of the different peptides or apoA-I (10 μM) purified from human plasma or histamine (1 mM) as positive control. In another set of experiments, cells were incubated with inhibitors (IF1, 1 μM) for 10 min before treatment with peptides or apoA-I. The fluorescence was recorded for 30 min (λex=495 nm, λem=515 nm) with a Tecan Flash Multimode Reader (Thermo Fisher Scientific). Fluorescence for each condition was compared with the value obtained in untreated cells, and results were expressed as the fold change as compared with the basal condition (untreated cells).

Where [2] appears, read: male, C57B/L6J, mouse, plasma, sc.
The mark [3] stands for this setting: male, C57B/L6J, mouse, plasma, sc, sc.
[4] abbreviates: male, C57B/L6J, mouse, plasma, sc, sc, read-out: t1/2lbd1 (distribution half-life) (converted).
The mark [5] stands for this setting: male, C57B/L6J, mouse, plasma, sc, sc, read-out: t1/2lbdz (elimination half-life) (converted).

What is called AUC is the area under the concentration-time curve, a measure of exposure. As usually defined, the Cmax is the highest concentration seen after dosing. Usually Tmax stands for the time at which the peak concentration occurs. As a reminder, the MRT is the average time that molecules of a dose stay in the body. For `CCCCCCCCCCCCCCCC(=O)NCCCC[C@H](NC(=O)[C@H](CCC(=O)O)NC(=O)[C@H](CCCNC(=N)N)NC(=O)[C@H](CO)NC(=O)[C@H](CCC(N)=O)NC(=O)[C@H](C)NC(=O)[C@H](CCCNC(=N)N)NC(=O)[C@H](Cc1ccccc1)NC(=O)[C@H](Cc1ccc(O)cc1)NC(=O)[C@H](CCCNC(=N)N)NC(=O)[C@H](CCC(=O)O)NC(=O)[C@H](CCC(=O)O)NC(=O)[C@H](CCC(=O)O)NC(=O)[C@H](C)NC(=O)[C@H](CCC(N)=O)NC(=O)[C@H](CCC(=O)O)NC(=O)[C@H](CCCNC(=N)N)NC(=O)[C@H](CCCCN)NC(=O)CNC(=O)[C@H](Cc1ccccc1)NC(=O)[C@H](C)NC(=O)CNC(=O)CNC(=O)[C@H](C)NC(=O)[C@H](CCC(=O)O)NC(=O)[C@H](CCCNC(=N)N)NC(=O)[C@@H](NC(=O)[C@H](CO)NC(=O)CNC(=O)[C@H](C)NC(=O)CNC(=O)[C@H](CCCNC(=N)N)NC(C)=O)[C@@H](C)CC)C(N)=O` [peptide of formula (II), CH3CO-[SEQ ID NO: 1]-K-[palmitoyl]-NH2] (Ac-RGAGSIREAGGAFGKREQAEEERYFRAQSREK(Palmitoyl)-NH2), in data set [1] (setting [2]), the AUC came to 211000 ng·h/mL, the highest level (Cmax) was 25600 ng/mL and the Tmax came to 240 min. In addition, in data set [1] (setting [3]), the mean residence time (MRT) was determined as 349 min. In addition, the half-life in data set [1] (setting [4]) is 125 min. The half-life in data set [1] (setting [5]) is 752 min. In data set [1] (sc), the “Cl (total plasma clearance)” value turned out to be 0.83 mL/min/kg and the “Vd (volume of distribution)” value is given as 1 L/kg. Further, the “stimulation of NO production by endothelial cells” value in the data set with HUVEC cells is on record as “about 50%”.
As a reminder, the clearance is the volume of plasma or blood freed of the substance per unit of time. Usually Vd stands for the apparent volume that relates the amount in the body to the concentration in plasma or blood. Regarding “Ac-RGAGSIREAGGAFGKREQAEEERYFRAQSRE-NH2 [peptide of formula (I), CH3CO-[SEQ ID NO: 1]-NH2]”, the AUC in data set [1] (male, C57B/L6J, mouse, plasma, iv) turned out to be 13300 ng·h/mL; in data set [1] (setting [2]) it was 6140 ng·h/mL. Moreover, the MRT turned out to be 8.4 min in data set [1] (male, C57B/L6J, mouse, plasma, iv, iv) and 33 min in data set [1] (setting [3]). Besides, the half-life in data set [1] (male, C57B/L6J, mouse, plasma, iv, iv, read-out: t1/2lbd1 (distribution half-life) (converted)) is 3.6 min; in data set [1] (male, C57B/L6J, mouse, plasma, iv, iv, read-out: t1/2lbdz (elimination half-life) (converted)), 15.6 min; in data set [1] (setting [4]), 11.4 min; in data set [1] (setting [5]) it was 12.6 min. In data set [1] (male, C57B/L6J, mouse, plasma, iv, read-out: Cl (total plasma clearance) (converted)), the clearance is 31.7 mL/min/kg. In addition, the Vd in data set [1] (male, C57B/L6J, mouse, plasma, iv, read-out: Vd (volume of distribution)) is 0.7 L/kg. This molecule also showed a Cmax in data set [1] (setting [2]) of 8290 ng/mL. Besides, the Tmax in data set [1] (setting [2]) worked out at 15 min. The “Vd (volume of distribution)” value in data set [1] (sc) is 0.5 L/kg. Further, the “stimulation of NO production by endothelial cells” value with HUVEC cells was “about 50%”.
